What was measured:
[1] = test system: P388; experiment: Cytotoxicity against mouse P388 cells; format: functional, cell-based
[2] = Toxicity against Sea urchin fertilized eggs assessed as inhibition of cell division at 5 ppm; parameters: species or system Egg; conditions: echinoidea

`CC1(C)C[C@H](Cl)C[C@]2(C)[C@H]3C[C@@H]([C@H]4CC(=O)NC4=O)O[C@@]3(C)CC(=O)[C@@H]12` [HATERUMAIMIDE I] gave an IC50 [1] greater than 10 µg/mL and an inhibition at 5 ppm [2] of 80%.

Source: ChEMBL document CHEMBL1155765, “Haterumaimides F-I, four new cytotoxic diterpene alkaloids from an ascidian Lissoclinum species” (J Nat Prod, 2001)
